In US5821061A, “Method and reagent for detecting a ligand in a sample” (Toyo Boseki Kabushiki Kaisha, priority 1995, dated 1998):

Tests used:
[1] = test system: alkaline phosphatase of Bacillus badius TE3592; assay: Substrate specificity of the alkaline phosphatase of Bacillus badius TE3592; type: biochemical; conditions: enzyme of Bacillus badius TE3592; for Relative Activity: substrate specificity, p-nitrophenyl phosphate = 100
[2] = test system: alkaline phosphatase of Bacillus badius TE3597; assay: Substrate specificity of the alkaline phosphatase of Bacillus badius TE3597; type: biochemical; conditions: enzyme of Bacillus badius TE3597; for Relative Activity: substrate specificity, p-nitrophenyl phosphate = 100
[3] = test system: alkaline phosphatase of Bacillus badius TE3593; assay: Substrate specificity of the alkaline phosphatase of Bacillus badius TE3593; type: biochemical; conditions: enzyme of Bacillus badius TE3593; for Relative Activity: substrate specificity, p-nitrophenyl phosphate = 100
[4] = literature; temperature not given; cited from earlier work
[5] = literature; cited from earlier work

| Compound | Substrate specificity (acts on) [1] | Relative Activity [1] | Substrate specificity (acts on) [2] | Relative Activity [2] | Substrate specificity (acts on) [3] | Relative Activity [3] | Specific activity [4] [U/mg] | Stability (in words) [5] |
| --- | --- | --- | --- | --- | --- | --- | --- | --- |
| O=P(O)(O)OC[C@H]1OC(O)[C@H](O)[C@@H](O)[C@@H]1O (stereo partly drawn) [Glucose-6-phosphate] | acts on | 14.8 | acts on | 34.5 | acts on | 44.3 | – | – |
| NCCOP(=O)(O)O [Phosphoethanolamine] | acts on | 44.4 | acts on | 67.0 | acts on | 73.8 | – | – |
| O=P(O)(O)OC(CO)CO [β-Glycerophosphate] | acts on | 49.7 | acts on | 67.5 | acts on | 78.1 | – | – |
| O=P(O)(O)OCC(O)CO (racemic) [DL-α-Glycerophosphate] | acts on | 37.9 | acts on | 67.0 | acts on | 71.4 | – | – |
| NC(=O)c1ccc[n+]([C@@H]2O[C@H](COP(=O)([O-])OP(=O)(O)OC[C@H]3O[C@@H](n4cnc5c(N)ncnc54)[C@H](OP(=O)(O)O)[C@@H]3O)[C@@H](O)[C@H]2O)c1 [NADP] | acts on | 15.4 | acts on | 15.4 | acts on | 90.5 | – | – |
| alkaline phosphatase derived from Escherichia coli: alkaline phosphatase derived from Escherichia coli, used for dephosphorylation in molecular biology | – | – | – | – | – | – | 60 | good stability |
| O=P(O)(O)OC1O[C@H](CO)[C@@H](O)[C@H](O)[C@H]1O (stereo partly drawn) [Glucose-1-phosphate] | – | 0 | acts on | 25.0 | – | 1.44 | – | – |
